Reference: US10576078B2 (Council of Scientific & Industrial Research, priority 2017, dated 2020)

Experiments:
[1] = rat, in vivo, po
Source text: (§1) Sprague-Dawley rats (n=6 per group) were divided into 3 groups. […] Plasma was separated and processed for analysis by LC-MS/MS. For pharmacokinetic and statistical analysis, plasma concentration versus time data were plotted and analyzed by non-compartmental analysis method using WinNonlin (Pharsight, Mountain View, Calif.) software.
as §1, with “For this SD” for “Sprague-Dawley”

[2] = cited from earlier work
[3] = system: CD34+ cells from imatinib-resistant patients (quiescent LSCs); experiment: CFSE assay of quiescent LSCs; format: cell-based, Human
Experimental: Cells were gated depending on CFSE intensity. […] Apoptosis in these cells was determined by annexin V staining.
For assessing apoptosis in quiescent LSCs, purified CD34^+ cells were first stained with carboxyfluorescein succinimidyl ester (CFSE; Invitrogen) for 30 min. Cells were then washed and resuspended in SFM medium with 5 growth factors and were kept at 37° C. overnight. Next day, cells were treated as indicated in SFM medium with growth factors and were maintained further for 4 days with supplementation of the drugs every 48 h (drug concentrations in FIG. 5 and its description). Cells were then harvested, washed, and were labeled with CD34-PE and Annexin-APC antibodies and then gated into non-dividing cells (CD34^+CFSE^bright) and dividing cell (CD34^+CFSE^dim) population based on CFSE fluorescence intensity. […] Number of cells or apoptosis was determined by flowcytometry.

[4] = system: stat5b, HIF-1α, HIF-2α and CITED2 transcripts in CD34+ cells from imatinib-resistant patients; experiment: QRT-PCR of stem cell factors in CD34+ CML cells; format: cell-based, Human
Experimental: CD34^+ cells isolated from IMT-resistant patients (n=3) were treated with CFZ (5 μM, 24 h) and stat5b, HIF-1α, HIF-2α and CITED2 transcripts were assessed by QRT-PCR (in triplicates). ***p<0.0001.
CD34+ cells were isolated from imatinib-resistant CP-CML cells as described above. Cells were then treated with vehicle (V; 0.1% DMSO) or CFZ (5 μM) for 24 h. Total RNA was isolated from CD34+ cells as described above, using TRI reagent. 2 μg total RNA was reverse transcribed using High-Capacity cDNA Reverse Transcription Kit (Applied Biosystems; Foster City, Calif.). Quantitative real-time PCRs (QRT-PCR) were performed on a LightCycler 480 System (Roche, Indianapolis, Ind.) using VeriQuest SYBR Green qPCR Master Mix (Affymetrix, Thermo Scientific). The QRT-PCR primers were designed using Universal ProbeLibrary Assay Design Center (Roche Life Science). Primer sequences (5′-3′) hSTAT5B-For-TGAAG […], hSTAT5B-Rev […] ACTG, hHIF-1α-For-[…], hHIF-1α-Rev-[…], hHIF-2α-For-[…], hHIF-2α-Rev-[…], hCITED-2-For-[…], hCITED-2-Rev-[…]. The data were analyzed by ΔΔCT method with GAPDH (GAPDH-For-[…], GAPDH-Rev-GCC […]) used as an internal control (FIG. 2F).

[5] = CD34+ cells from imatinib-resistant patients, CFZ 5 μM, 24 h

In the case of `CC(C)/N=c1\cc2n(-c3ccc(Cl)cc3)c3ccccc3nc-2cc1Nc1ccc(Cl)cc1` [CFZ, Clofazimine], the “Tmax in combination group compared to individual groups” value [1] is listed as “no change”, the “clearance in combination group compared to individual groups” value [1] is listed as “lower” and the “average human plasma level of CFZ” value ([2]; following daily oral administration of 100 mg CFZ) is listed as 0.7 mg/L. The “human plasma Cmax of CFZ” value ([2]; human plasma) was 0.4 to 4 µg/mL, the “apoptosis in CFSE-bright cells” value ([3]; 96 h, annexin V) was “robust apoptosis” and the “apoptosis in CFSE-dim cells” value ([3]; 96 h, annexin V) was “robust apoptosis”. The “CFSE-dim (dividing cell) population” value ([3]; n=3, 96 h) was “increased”, the “number of CFSE-bright (non-dividing) cells” value ([3]; n=3, 96 h) was “drastically reduced” and the CITED2 transcript [4, 5] was “reduced”. The HIF-1α transcript [4, 5] was “reduced”, the HIF-2α transcript [4, 5] was “reduced” and the stat5b transcript [4, 5] was “reduced”. For the same compound, the “stat5 mRNA expression” value ([4]; FIG. 2F) was “suppressed”.
